The test system of one assay is Capan-1 (K-Ras G12V). The experiment in a line: CellTiter-Glo cell viability assay, 5-day treatment. Particulars: Homo sapiens, CAPAN-1, 120 h, 5-day treatment; read-out: Capan-1 Cell Viability assay data (K-Ras G12V, IC50). In kind it is cell-based. In a few lines:
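Seeded cells received test compound by direct dispensing. On day 5 the plates sat at room temperature approximately 30 minutes, then luminescence was measured. Data were normalized to DMSO and curve-fitted with four parameters.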
(In general: ATP-based viability assays read luminescence as a measure of living cells.)

A further assay deals with KRAS G12C (Homo sapiens, UniProt P01116+P62937, G12C). The assay is described as follows: Disruption of BRAF RBD interaction with Ras (FRET / MOA assay, with Cyclophilin A). In kind it is biochemical. The procedure, abridged: (§1)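 Compound-driven ternary complex formation between nucleotide-loaded K-Ras and Cyclophilin A was measured as loss of BRAF RBD binding. Compounds (10-point 3-fold series, top 30 μM final) were incubated 3 h at 25 °C, then anti-His Eu-W1024 (10 nM) and anti-GST allophycocyanin (50 nM) added for 1.5 h. IC50 was taken from the TR-FRET ratio decrease versus DMSO.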
KRAS G12C, sequence (P01116 1-169 isoform P01116-2 G12C): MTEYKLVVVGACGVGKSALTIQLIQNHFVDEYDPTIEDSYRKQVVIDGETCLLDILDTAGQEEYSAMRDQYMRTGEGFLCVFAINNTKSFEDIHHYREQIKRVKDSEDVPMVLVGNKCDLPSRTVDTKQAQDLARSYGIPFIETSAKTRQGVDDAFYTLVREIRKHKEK
KRAS G12C, sequence (P62937 whole entry): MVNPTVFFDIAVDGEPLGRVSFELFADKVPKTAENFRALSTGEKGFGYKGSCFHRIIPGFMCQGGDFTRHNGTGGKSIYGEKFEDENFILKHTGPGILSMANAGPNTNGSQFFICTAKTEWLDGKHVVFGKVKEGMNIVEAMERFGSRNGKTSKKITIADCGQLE

The next assay has as its target NRAS G12C (Homo sapiens, UniProt P01111+P62937, G12C). The description is as above. The class given is biochemical.
In another assay the target is KRAS WT (Homo sapiens, UniProt P01116+P62937). The assay is described as above. In kind it is biochemical. In a few lines:
as §1

The target of another assay is KRAS G13D (Homo sapiens, UniProt P01116+P62937, G13D). Described as above. The class given is biochemical. In a few lines: as §1
KRAS G13D, sequence (P01116 1-169 isoform P01116-2 G13D limits assumed): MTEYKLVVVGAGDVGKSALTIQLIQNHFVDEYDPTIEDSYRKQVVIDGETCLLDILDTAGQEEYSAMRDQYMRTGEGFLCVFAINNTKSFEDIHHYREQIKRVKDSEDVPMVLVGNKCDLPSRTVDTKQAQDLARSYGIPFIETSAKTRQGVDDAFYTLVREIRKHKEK
KRAS G13D, sequence (P62937 whole entry): as the sequence (P62937 whole entry) above
For the next assay, the target named is KRAS G12V (Homo sapiens, UniProt P01116+P62937, G12V). Described as above. In kind it is biochemical. In a few lines: as §1
KRAS G12V, sequence (P01116 1-169 isoform P01116-2 G12V limits assumed): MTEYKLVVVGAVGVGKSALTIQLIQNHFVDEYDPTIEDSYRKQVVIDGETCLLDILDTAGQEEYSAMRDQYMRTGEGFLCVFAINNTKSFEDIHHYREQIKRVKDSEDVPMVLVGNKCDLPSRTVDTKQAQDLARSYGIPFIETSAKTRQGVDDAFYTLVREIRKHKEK
KRAS G12V, sequence (P62937 whole entry): as the sequence (P62937 whole entry) above
A further assay concerns the target KRAS G12D (Homo sapiens, UniProt P01116+P62937, G12D). Described as above. The class given is biochemical. In a few lines:
as §1

The next assay concerns the target KRAS G12S (Homo sapiens, UniProt P01116+P62937, G12S). The assay is described as above. In kind it is biochemical. In a few lines:
as §1

For the next assay, the target named is KRAS G13C (Homo sapiens, UniProt P01116+P62937, G13C). Described as above. The class given is biochemical. The procedure, abridged:
as §1

[1] abbreviates: read-out: KRAS G12C FRET data, IC50.
Setting [2] is: NRAS G12C, read-out: NRAS G12C FRET data IC50.
Where [3] appears, read: KRAS WT, read-out: KRAS WT FRET data IC50.
Where [4] appears, read: KRAS G13D, read-out: KRAS G13D FRET data IC50.
Where [5] appears, read: KRAS G12V, read-out: KRAS G12V FRET data IC50.
[6] abbreviates: read-out: KRAS G12D FRET data, IC50.
Setting [7] is: read-out: KRAS G12S FRET data, IC50.
[8] abbreviates: read-out: KRAS G13C FRET data, IC50.
[9] abbreviates: NRAS G12C FRET data IC50, NRAS G12C.
Setting [10] is: KRAS WT FRET data IC50, KRAS WT.
Setting [11] is: KRAS G13D FRET data IC50, KRAS G13D.
The mark [12] stands for this setting: KRAS G12V FRET data IC50, KRAS G12V.

“And” between values parts separate entries of the source, which are not always exact repeats. Equal entries are not always repeated. Where two headings read alike, the source gives them in different places.

KRAS G12D, sequence (P01116 1-169 isoform P01116-2 G12D limits assumed): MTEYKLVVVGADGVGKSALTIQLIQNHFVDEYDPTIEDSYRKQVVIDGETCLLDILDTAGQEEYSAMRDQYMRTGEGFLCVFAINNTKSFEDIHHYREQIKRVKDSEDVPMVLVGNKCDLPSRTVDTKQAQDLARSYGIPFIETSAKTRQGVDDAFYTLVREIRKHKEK
KRAS G12D, sequence (P62937 whole entry): as the sequence (P62937 whole entry) above
NRAS G12C, sequence (P01111 whole entry G12C): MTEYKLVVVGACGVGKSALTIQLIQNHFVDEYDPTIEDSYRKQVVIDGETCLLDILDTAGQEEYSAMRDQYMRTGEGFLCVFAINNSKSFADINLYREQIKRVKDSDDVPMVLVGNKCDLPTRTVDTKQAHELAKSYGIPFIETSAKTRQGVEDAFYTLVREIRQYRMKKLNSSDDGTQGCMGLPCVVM
NRAS G12C, sequence (P62937 whole entry): as the sequence (P62937 whole entry) above
KRAS G12S, sequence (P01116 1-169 isoform P01116-2 G12S limits assumed): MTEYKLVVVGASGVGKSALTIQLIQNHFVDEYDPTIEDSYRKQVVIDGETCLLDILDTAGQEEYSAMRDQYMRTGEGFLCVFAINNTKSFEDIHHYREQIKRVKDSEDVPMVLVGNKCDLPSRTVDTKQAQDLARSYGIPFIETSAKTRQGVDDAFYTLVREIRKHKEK
KRAS G12S, sequence (P62937 whole entry): as the sequence (P62937 whole entry) above
KRAS G13C, sequence (P01116 1-169 isoform P01116-2 G13C): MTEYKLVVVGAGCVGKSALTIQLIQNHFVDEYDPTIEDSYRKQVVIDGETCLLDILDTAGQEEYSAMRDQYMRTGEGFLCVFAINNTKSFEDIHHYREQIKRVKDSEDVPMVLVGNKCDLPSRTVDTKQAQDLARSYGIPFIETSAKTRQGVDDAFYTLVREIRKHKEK
KRAS G13C, sequence (P62937 whole entry): as the sequence (P62937 whole entry) above
KRAS WT, sequence (P01116 1-169 isoform P01116-2 limits assumed): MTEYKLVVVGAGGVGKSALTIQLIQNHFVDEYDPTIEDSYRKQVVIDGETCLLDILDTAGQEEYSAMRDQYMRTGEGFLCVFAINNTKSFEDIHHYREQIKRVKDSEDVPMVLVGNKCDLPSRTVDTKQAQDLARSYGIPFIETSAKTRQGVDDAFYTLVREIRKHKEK
KRAS WT, sequence (P62937 whole entry): as the sequence (P62937 whole entry) above

Usually IC50 stands for the concentration needed to halve the response being measured. Regarding `CCn1c(-c2cccnc2[C@H](C)OC)c2c3cc(ccc31)-c1cc(O)cc(c1)C[C@H](NS(=O)(=O)c1cnc[nH]1)C(=O)N1CCC[C@H](N1)C(=O)OCC(C)(C)C2` (racemic) [Example A192], the IC50 with Capan-1 (K-Ras G12V), on KRAS G12C (setting [1]), at NRAS G12C (setting [2]), on KRAS WT (setting [3]), on KRAS G13D (setting [4]) and on KRAS G12V (setting [5]) was greater than 10000 nM throughout. Moreover, the IC50 at KRAS G12D (setting [6]), at KRAS G12S (setting [7]) and at KRAS G13C (setting [8]) was greater than 10000 nM each time.

Take `CCn1c(-c2cnccc2COC)c2c3cc(ccc31)-c1cc(O)cc(c1)C[C@H](NC(=O)[C@H](C(C)C)N(C)C(=O)[C@H](C)O)C(=O)N1CCC[C@H](N1)C(=O)OCC(C)(C)C2` [Example A93]: the IC50 in the assay on Capan-1 (K-Ras G12V) lay in the range of 1000 to 10000 nM; on KRAS G12C (KRAS G12C FRET data, IC50), 100 to 1000 nM; against NRAS G12C (setting [9]), 100 to 1000 nM; at KRAS WT (setting [10]), 100 to 1000 nM; against KRAS G13D (setting [11]), 100 to 1000 nM; against KRAS G12V (setting [12]), 100 to 1000 nM. Besides, the IC50 on KRAS G12D (KRAS G12D FRET data, IC50) is 1000 to 10000 nM; at KRAS G12S (KRAS G12S FRET data, IC50) it was 100 to 1000 nM; on KRAS G13C (KRAS G13C FRET data, IC50), 100 to 1000 nM.

With `CCn1c(-c2cccnc2[C@H](C)OC)c2c3cc(ccc31)-c1cc(O)cc(c1)C[C@H](NC(=O)[C@H](C(C)C)N(C)C(=O)[C@H]1CCNC1)C(=O)N1CCC[C@H](N1)C(=O)OCC(C)(C)C2` [Example A4], the IC50 with Capan-1 (K-Ras G12V) was greater than 10000 nM; at KRAS G12C (KRAS G12C FRET data, IC50) it was 100 to 1000 nM and 10 to 100 nM; against NRAS G12C (setting [9]) it was 1000 to 10000 nM and 10 to 100 nM; against KRAS WT (setting [10]) it was 1000 to 10000 nM and 10 to 100 nM; against KRAS G13D (setting [11]) it was 100 to 1000 nM and 10 to 100 nM; against KRAS G12V (setting [12]), 100 to 1000 nM and > 10000 nM. The IC50 against KRAS G12D (KRAS G12D FRET data, IC50) is 1000 to 10000 nM and 10 to 100 nM; against KRAS G12S (KRAS G12S FRET data, IC50), 1000 to 10000 nM and 10 to 100 nM; at KRAS G13C (KRAS G13C FRET data, IC50), 100 to 1000 nM and 10 to 100 nM.

As for `CCn1c(-c2cccnc2[C@H](C)OC)c2c3cc(ccc31)-c1csc(n1)C[C@H](NC(=O)[C@H](C(C)C)N(C)C(=O)N1CC(Cc3cnn(C)c3)C1)C(=O)N1CCC[C@H](N1)C(=O)OCC(C)(C)C2` [Example A500], the IC50 in the assay with Capan-1 (K-Ras G12V) was less than 10 nM.

Consider `CCn1c(-c2cccnc2[C@H](C)OC)c2c3cc(ccc31)-c1csc(n1)C[C@H](NC(=O)[C@H](C(C)C)N1CCC3(CN(C)C3)C1=O)C(=O)N1CCC[C@H](N1)C(=O)OCC(C)(C)C2` [Example A222], for which the IC50 in the assay on Capan-1 (K-Ras G12V), at NRAS G12C (setting [2]) and on KRAS G12V (setting [5]) was greater than 10000 nM in each case.

As to `CCn1c(-c2cccnc2[C@H](C)OC)c2c3cc(ccc31)-c1csc(n1)C[C@H](NC(=O)[C@H](C(C)C)N(C)C(=O)[C@H]1CCN(C(=O)CN)C1)C(=O)N1CCC[C@H](N1)C(=O)OCC(C)(C)C2` [Example A106], the IC50 in the assay with Capan-1 (K-Ras G12V) is 1000 to 10000 nM; on KRAS G12C (setting [1]) it was 100 to 1000 nM; at NRAS G12C (setting [2]) it was 100 to 1000 nM; on KRAS WT (setting [3]) it was 100 to 1000 nM; at KRAS G13D (setting [4]), 1000 to 10000 nM; on KRAS G12V (setting [5]), 1000 to 10000 nM. Also, the IC50 at KRAS G12D (setting [6]) is 100 to 1000 nM; at KRAS G12S (setting [7]) it was 1000 to 10000 nM; on KRAS G13C (setting [8]), 100 to 1000 nM.

On to `CCn1c(-c2cccnc2[C@H](C)OC)c2c3cc(ccc31)-c1cc(O)cc(c1)C[C@H](NC(=O)[C@H](C(C)C)N(C)C(=O)C1CC13CCNCC3)C(=O)N1CCC[C@H](N1)C(=O)OCC(C)(C)C2` (stereo partly shown) [Example A151], for which the IC50 with Capan-1 (K-Ras G12V) was greater than 10000 nM; at KRAS G12C (setting [1]), 10 to 100 nM; on NRAS G12C (setting [2]), 10 to 100 nM; at KRAS WT (setting [3]), 10 to 100 nM; on KRAS G13D (setting [4]) it was 10 to 100 nM; on KRAS G12V (setting [5]), 100 to 1000 nM. The IC50 was in the range of 100 to 1000 nM at KRAS G12D (setting [6]), 100 to 1000 nM on KRAS G12S (setting [7]) and 10 to 100 nM on KRAS G13C (setting [8]).

These data come from patent US20230233569A1 (Revolution Medicines, Inc., priority 2020, published 2023).
